ChEMBL document CHEMBL1201862, “PubChem BioAssay data set” (2004)
Activity calls are given as the source filed them.

Tests used:
Candida albicans = assay: Candida growth inhibition combined with fluconazole – CaCi-2 strain, Alamar Blue, dry powder, set 3, dose response (AID 488907); assay type: functional, organism-based
HEK293 [1] = assay: cells; conditions: Homo sapiens
HEK293 [2] = assay: cells; conditions: Homo sapiens; remark: listed apart in the source
[3] = target: T1, Voltage-gated N-type calcium channel alpha-1B subunit/Amyloid beta A4 precursor protein-binding family A member 1 (Homo sapiens, UniProt Q00975+Q02410); assay type: protein assay
T1 sequence (Q00975 whole entry): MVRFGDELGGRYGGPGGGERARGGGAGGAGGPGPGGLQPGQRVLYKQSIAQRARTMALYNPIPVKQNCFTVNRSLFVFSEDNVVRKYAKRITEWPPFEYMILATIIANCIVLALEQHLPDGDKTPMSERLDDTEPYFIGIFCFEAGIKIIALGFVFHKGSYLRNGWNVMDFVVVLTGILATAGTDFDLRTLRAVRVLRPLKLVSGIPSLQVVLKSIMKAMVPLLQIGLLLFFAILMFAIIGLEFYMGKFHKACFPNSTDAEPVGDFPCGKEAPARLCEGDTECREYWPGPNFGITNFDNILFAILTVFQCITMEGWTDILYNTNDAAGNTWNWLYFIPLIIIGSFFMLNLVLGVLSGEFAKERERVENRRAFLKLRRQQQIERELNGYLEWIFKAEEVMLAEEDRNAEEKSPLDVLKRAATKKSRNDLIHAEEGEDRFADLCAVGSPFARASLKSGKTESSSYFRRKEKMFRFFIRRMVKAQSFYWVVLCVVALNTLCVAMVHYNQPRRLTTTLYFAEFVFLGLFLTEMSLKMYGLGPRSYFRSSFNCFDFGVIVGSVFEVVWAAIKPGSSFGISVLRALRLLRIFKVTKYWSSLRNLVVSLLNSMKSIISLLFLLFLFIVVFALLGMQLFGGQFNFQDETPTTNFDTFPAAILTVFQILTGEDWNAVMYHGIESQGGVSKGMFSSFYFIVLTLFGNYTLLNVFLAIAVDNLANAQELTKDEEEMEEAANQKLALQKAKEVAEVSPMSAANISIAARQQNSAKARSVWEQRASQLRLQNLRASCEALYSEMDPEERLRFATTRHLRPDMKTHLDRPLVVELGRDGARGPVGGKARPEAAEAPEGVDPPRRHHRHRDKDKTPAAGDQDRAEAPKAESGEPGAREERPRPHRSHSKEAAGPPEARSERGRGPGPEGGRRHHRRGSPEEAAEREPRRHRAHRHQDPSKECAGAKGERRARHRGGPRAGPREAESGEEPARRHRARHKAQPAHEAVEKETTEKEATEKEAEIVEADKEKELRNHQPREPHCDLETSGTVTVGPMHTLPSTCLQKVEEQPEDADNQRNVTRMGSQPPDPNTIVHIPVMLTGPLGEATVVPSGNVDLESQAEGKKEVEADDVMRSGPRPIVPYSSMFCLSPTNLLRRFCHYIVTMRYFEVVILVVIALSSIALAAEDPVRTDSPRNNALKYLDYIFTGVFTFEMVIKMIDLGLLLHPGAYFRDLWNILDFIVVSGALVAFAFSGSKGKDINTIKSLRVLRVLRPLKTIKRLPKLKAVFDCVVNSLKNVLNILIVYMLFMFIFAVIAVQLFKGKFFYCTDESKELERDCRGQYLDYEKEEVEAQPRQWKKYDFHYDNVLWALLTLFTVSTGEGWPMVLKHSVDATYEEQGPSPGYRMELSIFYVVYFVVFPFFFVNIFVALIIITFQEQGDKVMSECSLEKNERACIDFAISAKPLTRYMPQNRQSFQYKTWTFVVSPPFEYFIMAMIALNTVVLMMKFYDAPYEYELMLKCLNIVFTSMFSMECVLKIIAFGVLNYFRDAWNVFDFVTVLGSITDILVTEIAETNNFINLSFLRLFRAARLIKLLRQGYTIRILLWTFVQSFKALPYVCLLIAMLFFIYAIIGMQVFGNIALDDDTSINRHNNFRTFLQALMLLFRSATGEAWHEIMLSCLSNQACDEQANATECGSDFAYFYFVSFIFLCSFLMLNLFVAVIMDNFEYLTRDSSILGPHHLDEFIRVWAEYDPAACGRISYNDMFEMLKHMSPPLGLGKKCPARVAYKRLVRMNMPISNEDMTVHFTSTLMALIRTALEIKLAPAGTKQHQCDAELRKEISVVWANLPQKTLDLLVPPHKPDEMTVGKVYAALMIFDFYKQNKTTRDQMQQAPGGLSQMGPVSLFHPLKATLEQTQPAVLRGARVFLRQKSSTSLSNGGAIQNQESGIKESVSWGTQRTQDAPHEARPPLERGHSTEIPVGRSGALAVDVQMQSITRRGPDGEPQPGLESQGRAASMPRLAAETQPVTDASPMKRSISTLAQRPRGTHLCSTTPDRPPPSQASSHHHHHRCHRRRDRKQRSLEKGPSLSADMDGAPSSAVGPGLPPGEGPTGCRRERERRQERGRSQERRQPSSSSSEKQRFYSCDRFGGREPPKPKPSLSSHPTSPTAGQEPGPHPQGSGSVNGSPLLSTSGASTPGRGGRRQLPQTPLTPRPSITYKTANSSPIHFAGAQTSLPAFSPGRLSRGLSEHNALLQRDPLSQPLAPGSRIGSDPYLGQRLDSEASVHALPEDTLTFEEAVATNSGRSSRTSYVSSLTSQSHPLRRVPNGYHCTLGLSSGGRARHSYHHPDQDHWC
T1 sequence (Q02410 whole entry): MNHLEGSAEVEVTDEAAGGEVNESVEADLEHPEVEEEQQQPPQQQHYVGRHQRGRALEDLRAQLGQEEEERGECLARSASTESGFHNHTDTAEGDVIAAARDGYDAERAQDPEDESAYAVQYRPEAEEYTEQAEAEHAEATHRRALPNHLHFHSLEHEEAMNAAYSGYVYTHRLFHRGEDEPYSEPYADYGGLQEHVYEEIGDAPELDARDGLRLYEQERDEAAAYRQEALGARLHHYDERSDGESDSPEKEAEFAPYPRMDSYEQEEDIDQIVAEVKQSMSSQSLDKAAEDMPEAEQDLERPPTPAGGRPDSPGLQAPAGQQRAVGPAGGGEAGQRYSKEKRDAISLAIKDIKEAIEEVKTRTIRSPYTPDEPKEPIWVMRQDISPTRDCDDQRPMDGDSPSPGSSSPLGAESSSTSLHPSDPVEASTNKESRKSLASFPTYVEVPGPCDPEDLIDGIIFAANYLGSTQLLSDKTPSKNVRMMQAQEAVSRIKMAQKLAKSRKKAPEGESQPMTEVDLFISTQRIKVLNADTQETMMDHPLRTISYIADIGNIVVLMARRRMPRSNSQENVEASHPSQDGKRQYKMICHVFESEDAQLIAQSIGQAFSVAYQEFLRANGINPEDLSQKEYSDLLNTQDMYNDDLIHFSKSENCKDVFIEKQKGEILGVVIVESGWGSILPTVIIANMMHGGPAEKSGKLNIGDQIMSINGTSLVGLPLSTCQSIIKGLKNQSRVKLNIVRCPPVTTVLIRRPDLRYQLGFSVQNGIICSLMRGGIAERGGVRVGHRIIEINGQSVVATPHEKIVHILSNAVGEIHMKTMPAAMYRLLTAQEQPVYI

[4] = target: T1, Voltage-gated N-type calcium channel alpha-1B subunit/Amyloid beta A4 precursor protein-binding family A member 1; assay type: protein assay; remark: listed apart in the source
[5] = target: T2, Apoptotic protease-activating factor 1 (Homo sapiens, UniProt O14727); assay: activation of Apaf-1 mediated apoptosis – fluorescent, uHTS hits, dose response (AID 588554); assay type: functional
T2 sequence (O14727 whole entry): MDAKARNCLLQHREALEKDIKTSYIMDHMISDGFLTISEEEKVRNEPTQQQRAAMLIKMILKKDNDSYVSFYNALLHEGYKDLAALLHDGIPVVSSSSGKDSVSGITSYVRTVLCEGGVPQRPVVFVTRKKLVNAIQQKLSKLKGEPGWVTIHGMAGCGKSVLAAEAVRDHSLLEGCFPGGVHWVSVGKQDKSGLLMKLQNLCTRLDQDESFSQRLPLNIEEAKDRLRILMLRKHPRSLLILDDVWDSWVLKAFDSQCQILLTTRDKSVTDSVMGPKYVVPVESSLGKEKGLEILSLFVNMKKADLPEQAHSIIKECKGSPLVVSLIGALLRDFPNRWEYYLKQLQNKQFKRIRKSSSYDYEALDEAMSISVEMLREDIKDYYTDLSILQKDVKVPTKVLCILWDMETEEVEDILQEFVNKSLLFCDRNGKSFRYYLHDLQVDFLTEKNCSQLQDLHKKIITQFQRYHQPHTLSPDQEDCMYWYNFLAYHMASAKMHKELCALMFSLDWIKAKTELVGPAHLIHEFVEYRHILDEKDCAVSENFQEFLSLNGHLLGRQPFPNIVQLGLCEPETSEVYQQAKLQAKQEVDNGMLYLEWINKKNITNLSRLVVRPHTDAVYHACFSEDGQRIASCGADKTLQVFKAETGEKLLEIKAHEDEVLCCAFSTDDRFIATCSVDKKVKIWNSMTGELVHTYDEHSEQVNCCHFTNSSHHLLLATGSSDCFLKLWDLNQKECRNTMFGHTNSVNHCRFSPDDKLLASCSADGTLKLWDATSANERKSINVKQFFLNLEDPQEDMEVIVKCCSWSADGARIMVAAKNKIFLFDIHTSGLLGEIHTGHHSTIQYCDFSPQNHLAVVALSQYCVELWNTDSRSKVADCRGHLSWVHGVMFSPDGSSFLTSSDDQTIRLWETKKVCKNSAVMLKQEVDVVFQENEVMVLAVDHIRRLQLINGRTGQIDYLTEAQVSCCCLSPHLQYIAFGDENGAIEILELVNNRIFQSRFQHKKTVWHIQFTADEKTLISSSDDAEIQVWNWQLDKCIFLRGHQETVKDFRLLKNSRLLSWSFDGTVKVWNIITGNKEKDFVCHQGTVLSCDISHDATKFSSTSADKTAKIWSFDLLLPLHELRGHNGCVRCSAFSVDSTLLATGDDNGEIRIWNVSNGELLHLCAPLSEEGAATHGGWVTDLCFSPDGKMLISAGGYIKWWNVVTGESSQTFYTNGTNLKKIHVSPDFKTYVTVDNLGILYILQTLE

[6] = target: T3, Intestinal-type alkaline phosphatase (Homo sapiens, UniProt P09923); assay: human intestinal alkaline phosphatase activators, dose response, biochemical, luminescence, uHTS hits (AID 463120); assay type: functional
T3 sequence (P09923 whole entry): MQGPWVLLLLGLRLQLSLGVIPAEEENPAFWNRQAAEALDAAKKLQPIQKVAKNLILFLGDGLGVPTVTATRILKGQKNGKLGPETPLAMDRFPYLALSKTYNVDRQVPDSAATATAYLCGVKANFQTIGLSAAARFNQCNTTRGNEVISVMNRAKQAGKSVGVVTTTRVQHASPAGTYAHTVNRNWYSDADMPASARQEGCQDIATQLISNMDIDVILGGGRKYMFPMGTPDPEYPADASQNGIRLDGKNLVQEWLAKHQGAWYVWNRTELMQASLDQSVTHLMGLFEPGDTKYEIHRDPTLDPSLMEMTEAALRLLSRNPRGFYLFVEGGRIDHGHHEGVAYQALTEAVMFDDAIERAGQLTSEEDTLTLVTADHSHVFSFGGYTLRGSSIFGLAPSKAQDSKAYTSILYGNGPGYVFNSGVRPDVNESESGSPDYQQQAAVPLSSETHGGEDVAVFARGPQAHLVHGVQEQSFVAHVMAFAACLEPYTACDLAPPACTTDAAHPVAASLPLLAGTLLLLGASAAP

[7] = target: T3, Intestinal-type alkaline phosphatase; assay: activation of human intestinal alkaline phosphatase – biochemical, luminescent, uHTS hits, set 2, dose response (AID 488817); assay type: functional;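 further: potency of activators that raise enzyme activity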
[8] = target: T4, Alkaline phosphatase, tissue-nonspecific isozyme (Homo sapiens, UniProt P05186); assay: activation of tissue-nonspecific alkaline phosphatase – biochemical, TNAP isozyme, human IAP uHTS hits, selectivity assay for human IAP activator project, dose response (AID 488886); assay type: functional;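 further: potency of compounds raising TNAP activity as a selectivity check on IAP activators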
T4 sequence (P05186 whole entry): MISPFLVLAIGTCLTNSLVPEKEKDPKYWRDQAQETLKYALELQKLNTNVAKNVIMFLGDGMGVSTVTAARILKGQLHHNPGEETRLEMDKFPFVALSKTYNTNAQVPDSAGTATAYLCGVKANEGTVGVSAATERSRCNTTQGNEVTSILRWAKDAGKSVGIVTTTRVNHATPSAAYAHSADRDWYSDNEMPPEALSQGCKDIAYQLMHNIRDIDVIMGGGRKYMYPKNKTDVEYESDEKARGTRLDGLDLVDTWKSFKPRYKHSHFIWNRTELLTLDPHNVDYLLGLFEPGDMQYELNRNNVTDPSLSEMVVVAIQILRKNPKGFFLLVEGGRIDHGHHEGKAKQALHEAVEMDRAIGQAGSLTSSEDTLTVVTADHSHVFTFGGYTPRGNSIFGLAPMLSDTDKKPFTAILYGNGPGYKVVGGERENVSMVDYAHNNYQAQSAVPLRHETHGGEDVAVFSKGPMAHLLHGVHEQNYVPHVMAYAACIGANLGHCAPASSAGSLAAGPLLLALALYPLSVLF

[9] = target: Intestinal-type alkaline phosphatase (Mus musculus, UniProt P24822); assay: PubChem AID 488875; assay type: functional
Sequence of Intestinal-type alkaline phosphatase (Mus musculus, UniProt P24822) (P24822 whole entry): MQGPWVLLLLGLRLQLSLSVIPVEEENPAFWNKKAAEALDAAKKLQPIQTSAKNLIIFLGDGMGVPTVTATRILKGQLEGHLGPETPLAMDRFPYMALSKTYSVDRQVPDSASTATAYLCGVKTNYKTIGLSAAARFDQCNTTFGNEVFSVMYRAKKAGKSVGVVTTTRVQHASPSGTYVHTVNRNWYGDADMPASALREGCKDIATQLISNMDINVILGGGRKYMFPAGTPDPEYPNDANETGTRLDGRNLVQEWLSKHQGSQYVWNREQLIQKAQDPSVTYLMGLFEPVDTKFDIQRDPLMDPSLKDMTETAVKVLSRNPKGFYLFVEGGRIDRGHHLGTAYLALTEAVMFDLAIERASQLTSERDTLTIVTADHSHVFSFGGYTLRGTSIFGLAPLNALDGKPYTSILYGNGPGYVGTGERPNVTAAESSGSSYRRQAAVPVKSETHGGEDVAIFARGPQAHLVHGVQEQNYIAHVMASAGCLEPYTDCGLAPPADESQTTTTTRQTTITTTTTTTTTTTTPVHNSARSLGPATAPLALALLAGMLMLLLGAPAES

CAAX prenyl protease 1 = CAAX prenyl protease 1 (Saccharomyces cerevisiae S288c, UniProt P47154); assay: yeast CAAX protease Ste24 inhibition – biochemical, S. cerevisiae, plate reader, cherry-pick, dose response (AID 488815)
Sequence of CAAX prenyl protease 1 (P47154 whole entry): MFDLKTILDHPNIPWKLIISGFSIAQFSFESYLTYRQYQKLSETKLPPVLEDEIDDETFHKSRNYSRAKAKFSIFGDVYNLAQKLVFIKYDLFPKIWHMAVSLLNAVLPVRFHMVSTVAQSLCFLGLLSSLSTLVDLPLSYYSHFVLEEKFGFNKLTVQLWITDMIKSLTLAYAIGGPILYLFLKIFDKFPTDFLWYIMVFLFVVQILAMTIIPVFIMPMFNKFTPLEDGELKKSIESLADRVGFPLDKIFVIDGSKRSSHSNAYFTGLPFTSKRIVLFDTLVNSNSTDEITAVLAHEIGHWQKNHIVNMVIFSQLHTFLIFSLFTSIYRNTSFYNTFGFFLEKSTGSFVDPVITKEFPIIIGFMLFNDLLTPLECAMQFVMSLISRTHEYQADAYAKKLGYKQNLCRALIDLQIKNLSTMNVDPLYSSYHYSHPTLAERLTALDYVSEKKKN

CAAX prenyl protease 2 = target: T5, CAAX prenyl protease 2 (Homo sapiens, UniProt Q9Y256); assay: inhibition of Ras-converting CAAX protease Rce1 – biochemical, yeast membranes, quenched-peptide fluorescence, cherry-pick, dose response (AID 588849)
T5 sequence (Q9Y256 whole entry): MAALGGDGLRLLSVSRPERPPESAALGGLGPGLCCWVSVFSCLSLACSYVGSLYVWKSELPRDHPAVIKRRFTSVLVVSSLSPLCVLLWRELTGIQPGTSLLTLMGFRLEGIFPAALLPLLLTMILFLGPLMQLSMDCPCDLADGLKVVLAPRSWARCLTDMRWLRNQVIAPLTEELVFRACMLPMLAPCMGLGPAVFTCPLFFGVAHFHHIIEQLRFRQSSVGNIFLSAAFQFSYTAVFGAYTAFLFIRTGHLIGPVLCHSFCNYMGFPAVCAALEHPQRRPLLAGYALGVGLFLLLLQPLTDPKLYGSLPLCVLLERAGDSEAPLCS

Trypsin = Trypsin (Sus scrofa, UniProt P00761); assay: trypsin protease activity blockade – biochemical, quenched peptide fluorescence, cherry-pick, selectivity assay for Rce1 protease inhibitor project, dose response (AID 488789)
Sequence of Trypsin (P00761 whole entry): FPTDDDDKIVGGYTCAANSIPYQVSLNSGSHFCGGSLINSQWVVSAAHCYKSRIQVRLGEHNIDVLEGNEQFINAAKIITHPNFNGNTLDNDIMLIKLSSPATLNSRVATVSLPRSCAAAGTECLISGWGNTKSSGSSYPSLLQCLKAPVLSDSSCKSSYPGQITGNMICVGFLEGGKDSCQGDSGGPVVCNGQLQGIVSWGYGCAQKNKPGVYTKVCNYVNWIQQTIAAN

[10] = Luminescence Cell-Based Dose Response Follow up to Identify Inhibitors of Platelet Dense Granule Release. [Related pubchem assays (depositor defined):AID1663, AID1678, AID1889, AID2519]; assay type: functional
cells [11] = assay type: functional, cell-based
[12] = target: Lysine-specific demethylase 4C (Homo sapiens, UniProt Q9H3R0); assay: inhibition of JMJD2C H3K9me3 demethylation – biochemical, DELFIA europium, cherry-picked samples, dose response (AID 488835); assay type: functional
[13] = Luminescence Cell-Based Dose Retest to Confirm Inhibitors of Cancer Stem Cells. [Related pubchem assays (depositor defined):AID2717, AID2721]; assay type: functional; conditions: Homo sapiens
INS1 = assay: INS-1E survival protection against cytokine death – cell-based, luminescence, retest, dose response (AID 449756); assay type: functional; conditions: Rattus norvegicus;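 further: cell death triggered by IL-1 beta plus TNF-alpha plus IFN-gamma mixture; protective hits raise ATP signal compared with cytokine alone wells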
[14] = target: Lysine-specific demethylase 4A (Homo sapiens, UniProt O75164); assay: inhibition of JMJD2A H3K9me3 demethylation – biochemical, DELFIA europium, cherry-picked samples, selectivity assay for GASC-1 inhibitor project, dose response (AID 488840)
Hexokinase HKDC1 = target: T6, Hexokinase HKDC1 (Homo sapiens, UniProt Q2TB90); assay: inhibition of HKDC1 glucose phosphorylation – biochemical, W721R variant, dose response (AID 504729); assay type: functional
T6 sequence (Q2TB90 whole entry): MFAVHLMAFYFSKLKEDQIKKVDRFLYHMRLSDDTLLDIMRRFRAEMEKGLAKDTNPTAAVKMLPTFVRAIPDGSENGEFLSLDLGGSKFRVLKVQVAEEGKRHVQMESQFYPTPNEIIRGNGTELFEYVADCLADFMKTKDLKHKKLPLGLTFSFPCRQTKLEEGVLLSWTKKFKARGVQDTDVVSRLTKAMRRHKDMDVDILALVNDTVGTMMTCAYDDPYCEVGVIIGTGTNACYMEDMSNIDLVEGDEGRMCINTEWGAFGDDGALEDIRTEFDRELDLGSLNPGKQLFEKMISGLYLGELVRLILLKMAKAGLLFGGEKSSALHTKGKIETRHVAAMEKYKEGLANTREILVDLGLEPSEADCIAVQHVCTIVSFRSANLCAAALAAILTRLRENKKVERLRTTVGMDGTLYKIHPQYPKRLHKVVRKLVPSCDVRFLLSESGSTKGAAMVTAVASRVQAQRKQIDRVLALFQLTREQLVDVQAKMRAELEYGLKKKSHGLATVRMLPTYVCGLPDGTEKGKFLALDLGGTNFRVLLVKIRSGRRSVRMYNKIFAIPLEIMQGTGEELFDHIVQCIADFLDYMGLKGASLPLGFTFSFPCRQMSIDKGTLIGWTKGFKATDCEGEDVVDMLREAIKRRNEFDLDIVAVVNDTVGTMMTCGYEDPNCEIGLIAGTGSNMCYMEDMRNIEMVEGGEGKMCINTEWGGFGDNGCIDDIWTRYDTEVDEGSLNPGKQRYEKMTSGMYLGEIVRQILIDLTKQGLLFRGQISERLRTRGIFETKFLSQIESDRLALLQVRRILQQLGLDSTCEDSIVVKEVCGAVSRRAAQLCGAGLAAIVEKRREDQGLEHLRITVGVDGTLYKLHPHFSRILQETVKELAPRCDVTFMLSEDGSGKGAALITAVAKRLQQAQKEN

cells [15] = assay type: functional, cell-based; remark: listed apart in the source
[16] = target: T7, Heat shock factor protein 1 (Mus musculus, UniProt P38532); assay: enhancement of HSF1-driven luciferase signal – cell-based, NIH3T3, luminescence, dose retest, confirmation (AID 435004); assay type: functional;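 further: stress induced by proteasome inhibitor MG132 added 30 min after compound; luciferase reporter driven by HSF1 response element in NIH3T3 cells; actives raise luminescence as potentiators of the MG132 stress response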
T7 sequence (P38532 whole entry): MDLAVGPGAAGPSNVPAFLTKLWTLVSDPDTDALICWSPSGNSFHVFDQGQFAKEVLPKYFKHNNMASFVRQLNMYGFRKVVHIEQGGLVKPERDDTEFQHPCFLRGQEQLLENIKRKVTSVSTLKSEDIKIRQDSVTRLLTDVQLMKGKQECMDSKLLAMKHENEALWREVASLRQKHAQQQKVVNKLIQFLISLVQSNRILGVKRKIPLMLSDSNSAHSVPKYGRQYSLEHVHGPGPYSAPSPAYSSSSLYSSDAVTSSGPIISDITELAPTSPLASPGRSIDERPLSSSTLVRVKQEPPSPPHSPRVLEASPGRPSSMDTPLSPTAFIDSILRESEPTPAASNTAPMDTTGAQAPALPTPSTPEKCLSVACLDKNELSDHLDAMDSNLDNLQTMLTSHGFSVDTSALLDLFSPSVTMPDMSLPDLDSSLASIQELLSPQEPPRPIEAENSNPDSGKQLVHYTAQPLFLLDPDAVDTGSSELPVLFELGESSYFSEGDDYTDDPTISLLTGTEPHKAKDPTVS

In the case of `Cc1ccnc(N2CCN(C(=O)c3ccc(Cl)cc3)CC2)c1`, the AC50 (Candida albicans) is reported as 0.0873 µM (active).
In the case of `COc1cc2c(cc1OC)-c1cc(OCc3cccnc3)nc(=O)n1CC2`, the EC50 (HEK293 [1]) is reported as > 59.6 µM (inactive) and the EC50 (HEK293 [2]) is reported as > 59.6 µM (inactive).
In the case of `Cc1cc(C)c2c(=O)c(/C=C3\NC(=S)NC3=O)coc2c1`, the IC50 [3] is reported as 18.6 µM (active), the IC50 [4] is reported as > 50 µM (inactive) and the EC50 [5] is reported as 7.82 µM (active).
With `COc1cc(NC(=O)NCC2CCN(Cc3ccccc3Cl)CC2)cc(OC)c1OC` the EC50 [6] was 61.3 µM (active), the EC50 [7] was 46.9 µM (active) and the EC50 [8] was 63.1 µM (active). For the same compound, the EC50 [9] was 33.9 µM (active).
With `COc1ccc2c(c1)cc(C(=O)N[C@@H](CCSC)C(=O)N1CCC(C(=O)O)CC1)n2C` the AC50 (CAAX prenyl protease 1) was 8.08 µM (active), the AC50 (CAAX prenyl protease 2) was 22.2 µM (active) and the AC50 (Trypsin) was 27.2 µM (active).
For `CCCC(=O)Nc1cccc(NC(=O)Cc2ccc(Cl)cc2)c1`, the EC50 [10] was 500 µM (inactive).
In the case of `Oc1ccc(/C=N/Nc2ncc(Br)cn2)c(O)c1`, the EC50 (cells [11]) is reported as 41.1 µM (active), the AC50 [12] is reported as 0.829 µM (active) and the AC50 [13] is reported as 4.55 µM (active). For the same compound, the AC50 (INS1) was 1.54 µM (active), the AC50 [14] was > 60 µM (inactive) and the IC50 (Hexokinase HKDC1) was 1.68 µM (active). For the same compound, the EC50 (cells [15]) was > 350 µM (not active) and the EC50 [16] was 18.6 µM (active).
